From patent US20220324835A1 (Nurix Therapeutics, Inc., priority 2018, published 2022)

Legend:
Cbl-b [1] = biological target: T1, Cbl-b (Homo sapiens, UniProt Q13191); assay: Cbl-b inhibition assay (Cbl-b activity assay, FRET, Biological Example 1; 100 mM NaCl, 60 nM Src kinase); type: biochemical; details: upper bound stated in text lists; read-out: IC50 values in the Cbl-b inhibition assay of Biological Example 1
In short: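 TR-FRET assay using N-terminal biotinylated Avi-tagged Cbl-b bound to streptavidin-terbium, Src kinase for Cbl-b phosphorylation, and UbcH5B irreversibly conjugated to Bodipy-Fluorescein-ubiquitin. Phosphorylated Cbl-b binds UbcH5B-Ub, bringing the fluorophores together; inhibition is read as loss of FRET signal.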

T-cell [2] = assay: IL-2 secretion from T-cells co-stimulated with anti-CD3 and anti-CD28 antibody (Biological Example 2); type: cell-based, human; details: Homo sapiens, T-cell, read-out: IL-2 secretion Anti-CD3/Anti-CD28 stimulation; for fold induction at 0.3 µM: 0.3 μM Cbl-b inhibitor; for fold induction at 1 µM: 1 μM Cbl-b inhibitor; for fold induction at 4 µM: 4 μM Cbl-b inhibitor
In short: (§1)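 T-cells were stimulated with anti-CD3 antibody alone or with anti-CD28 antibody, in the presence or absence of Cbl-b inhibitor. IL-2 secretion or CD25 surface staining was measured, and values expressed as fold over the uninhibited baseline […].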

T-cell [3] = assay: IL-2 secretion from T-cells stimulated with anti-CD3 antibody alone (Biological Example 2); type: cell-based, human; details: T-cell, read-out: IL-2 secretion Anti-CD3 stimulation; for fold induction at 1 µM: 1 μM Cbl-b inhibitor; for fold induction at 8 µM: 8 μM Cbl-b inhibitor
T-cell [4] = assay: CD25 cell surface staining on T-cells co-stimulated with anti-CD3 and anti-CD28 antibody (Biological Example 2); type: cell-based, human; details: Homo sapiens, T-cell, read-out: CD25 staining Anti-CD3/Anti-CD28 stimulation; for fold induction at 0.3 µM: 0.3 μM Cbl-b inhibitor; for fold induction at 1 µM: 1 μM Cbl-b inhibitor; for fold induction at 4 µM: 4 μM Cbl-b inhibitor
In short: as §1

T-cell [5] = assay: CD25 cell surface staining on T-cells stimulated with anti-CD3 antibody alone (Biological Example 2); type: cell-based, human; details: T-cell, read-out: CD25 staining Anti-CD3 stimulation; for fold induction at 1 µM: 1 μM Cbl-b inhibitor; for fold induction at 8 µM: 8 μM Cbl-b inhibitor
Cbl-b [6] = biological target: T1, Cbl-b; assay: Cbl-b activity assay (Cbl-b inhibition assay), TR-FRET of Cbl-b interaction with UbcH5B-Ub; type: biochemical; details: assay buffer with 100 mM NaCl, 60 nM Src kinase; read-out: Cbl-b activity IC50
In short: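 UbcH5B (C85K) conjugated to N-terminally Bodipy-Fluorescein-labeled ubiquitin served as the fluorescent partner. After compound preincubation, Src kinase (60 nM) with 1 mM ATP and 5 mM MgCl2 (final) was added for 1.5 h, followed by a further 1 h incubation. Some values were obtained with 50 mM NaCl and 30 nM Src.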

[7] = fold change over baseline, primary human total T-cells
[8] = fold change over baseline (anti-CD3/anti-CD28 stimulated T-cells without inhibitor)
[9] = Homo sapiens, fold change over baseline (anti-CD3/anti-CD28 stimulated T-cells without inhibitor)

T1 sequence (Q13191 36-427): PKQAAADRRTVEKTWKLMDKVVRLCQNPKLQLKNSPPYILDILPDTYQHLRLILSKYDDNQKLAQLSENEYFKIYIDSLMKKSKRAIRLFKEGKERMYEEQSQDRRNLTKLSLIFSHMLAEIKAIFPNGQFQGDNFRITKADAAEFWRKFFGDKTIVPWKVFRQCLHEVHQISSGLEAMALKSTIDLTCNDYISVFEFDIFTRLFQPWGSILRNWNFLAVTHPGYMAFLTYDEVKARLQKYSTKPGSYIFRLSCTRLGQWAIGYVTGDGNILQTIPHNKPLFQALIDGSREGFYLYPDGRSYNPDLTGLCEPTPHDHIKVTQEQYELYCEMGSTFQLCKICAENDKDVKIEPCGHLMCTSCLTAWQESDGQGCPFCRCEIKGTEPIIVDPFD

Compound | IC50 (Cbl-b [1]) | fold induction at 0.3 µM (T-cell [2]; [7]) | fold induction at 1 µM (T-cell [2]; [7]) | fold induction at 4 µM (T-cell [2]; [7]) | fold induction at 1 µM (T-cell [3]; [7]) | fold induction at 8 µM (T-cell [3]; [7]) | fold induction at 0.3 µM (T-cell [4]; [7]) | fold induction at 1 µM (T-cell [4]; [7]) | fold induction at 4 µM (T-cell [4]; [7]) | fold induction at 1 µM (T-cell [5]; [7]) | fold induction at 8 µM (T-cell [5]; [7]) | IC50 (Cbl-b [6]) | fold induction at 0.3 µM (T-cell [2]; [8]) | fold induction at 1 µM (T-cell [2]; [8]) | fold induction at 1 µM (T-cell [3]; [9]) | fold induction at 0.3 µM (T-cell [4]; [8]) | fold induction at 1 µM (T-cell [4]; [8]) | fold induction at 1 µM (T-cell [5]; [9])
C[C@H](Cc1nncn1C)c1cc(NC2CCC2)nc(N2Cc3c(cccc3C(F)(F)F)C2=O)c1 [Compound 351, 2-[6-(cyclobutylamino)-4-[(2R)-1-(4-methyl-4H-1,2,4-triazol-3-yl)propan-2-yl]pyridin-2-yl]-4-(trifluoromethyl)-2,3-dihydro-1H-isoindol-1-one] | ≤ 300 nM | 1.01 to 2.5 | 1.01 to 2.5 | 1.01 to 2.5 | < 0.05 | 0.151 to 0.2 | 1.01 to 1.3 | 1.01 to 1.3 | 1.01 to 1.3 | 0.601 to 0.8 | > 1 | 100 to 300 nM | – | – | – | – | – | –
Cn1cnnc1[C@@H](F)C1(c2cccc(N3Cc4c(cc(CN5C6CCC5CC6)cc4C(F)(F)F)C3=O)c2)COC1 [Example 671a, (S)-6-((7-azabicyclo[2.2.1]heptan-7-yl)methyl)-2-(3-(3-(fluoro(4-methyl-4H-1,2,4-triazol-3-yl)methyl)oxetan-3-yl)phenyl)-4-(trifluoromethyl)isoindolin-1-one] | ≤ 100 nM | – | – | – | – | – | – | – | – | – | – | < 100 nM | 2.51 to 5 | 5 to 7.5 | > 0.201 | 1.51 to 1.75 | > 1.76 | 0.601 to 0.8
Cn1cnnc1CC1(c2cccc(NC(=O)c3cc(C4CC4)nc(C(F)(F)F)n3)c2)COC1 [Compound 341, 6-cyclopropyl-N-(3-(3-((4-methyl-4H-1,2,4-triazol-3-yl)methyl)oxetan-3-yl)phenyl)-2-(trifluoromethyl)pyrimidine-4-carboxamide] | ≤ 100 nM | 2.51 to 5 | > 7.5 | > 7.5 | 0.151 to 0.2 | > 0.201 | 1.01 to 1.3 | 1.31 to 1.5 | 1.51 to 1.75 | 0.801 to 1 | > 1 | < 100 nM | – | – | – | – | – | –
Cc1conc1CC(C)c1cccc(N2Cc3c(cccc3C(F)(F)F)C2=O)c1 (stereo not shown) [Compound 268, 2-(3-(1-(4-methylisoxazol-3-yl)propan-2-yl)phenyl)-4-(trifluoromethyl)isoindolin-1-one] | ≤ 500 nM | 1.01 to 2.5 | 1.01 to 2.5 | 1.01 to 2.5 | < 0.05 | 0.051 to 0.1 | 1.01 to 1.3 | 1.01 to 1.3 | 1.01 to 1.3 | 0.601 to 0.8 | 0.801 to 1 | 301 to 1000 nM | – | – | – | – | – | –
C[C@H](Cc1nncn1C)c1cc(C2CCOCC2)nc(N2Cc3c(cccc3C(F)(F)F)C2=O)c1 [Example 686, (R)-2-(4-(1-(4-methyl-4H-1,2,4-triazol-3-yl)propan-2-yl)-6-(tetrahydro-2H-pyran-4-yl)pyridin-2-yl)-4-(trifluoromethyl)isoindolin-1-one] | ≤ 1000 nM | – | – | – | – | – | – | – | – | – | – | 301 to 1000 nM | 1.01 to 2.5 | 1.01 to 2.5 | < 0.05 | 1.01 to 1.3 | 1.01 to 1.3 | < 0.6
Cn1cnnc1CC1(c2cccc(N3Cc4c(cc(C5CCOC5)cc4C(F)(F)F)C3=O)c2)COC1 (stereo not shown) [Example 613, 2-(3-(3-((4-methyl-4H-1,2,4-triazol-3-yl)methyl)oxetan-3-yl)phenyl)-6-(THF-3-yl)-4-(trifluoromethyl)isoindolin-1-one] | ≤ 100 nM | – | – | – | – | – | – | – | – | – | – | < 100 nM | 2.51 to 5 | 5 to 7.5 | 0.101 to 0.15 | 1.01 to 1.3 | 1.01 to 1.3 | 0.801 to 1
Cn1cnnc1[C@H](F)C1(c2cccc(N3Cc4c(cc(CN5C6CCCC5CC6)cc4C(F)(F)F)C3=O)c2)COC1 [Example 675b, 6-((8-azabicyclo[3.2.1]octan-8-yl)methyl)-2-(3-(3-((R)-fluoro(4-methyl-4H-1,2,4-triazol-3-yl)methyl)oxetan-3-yl)phenyl)-4-(trifluoromethyl)isoindolin-1-one] | ≤ 100 nM | – | – | – | – | – | – | – | – | – | – | < 100 nM | > 7.5 | > 7.5 | > 0.201 | 1.31 to 1.5 | 1.31 to 1.5 | > 1
Cn1cnnc1[C@H](F)C1(c2cccc(N3Cc4c(cc(CN5[C@@H]6CC[C@H]5C[C@@H](F)C6)cc4C(F)(F)F)C3=O)c2)COC1 [Example 672b, 2-(3-(3-((R)-fluoro(4-methyl-4H-1,2,4-triazol-3-yl)methyl)oxetan-3-yl)phenyl)-6-(((1R,3R,5S)-3-fluoro-8-azabicyclo[3.2.1]octan-8-yl)methyl)-4-(trifluoromethyl)isoindolin-1-one] | ≤ 100 nM | – | – | – | – | – | – | – | – | – | – | < 100 nM | > 7.5 | > 7.5 | > 0.201 | > 1.76 | > 1.76 | > 1
C[C@H](Cc1nncn1C)c1cccc(N2Cc3c(cc(C(=O)N4CC(O)C4)cc3C3CC3)C2=O)c1 [Compound 278, (R)-4-cyclopropyl-6-(3-hydroxyazetidine-1-carbonyl)-2-(3-(1-(4-methyl-4H-1,2,4-triazol-3-yl)propan-2-yl)phenyl)isoindolin-1-one] | ≤ 100 nM | 1.01 to 2.5 | 1.01 to 2.5 | 2.51 to 5 | 0.151 to 0.2 | > 0.201 | 1.01 to 1.3 | 1.01 to 1.3 | 1.01 to 1.3 | 0.801 to 1 | > 1 | < 100 nM | – | – | – | – | – | –
C[C@H](Cc1nncn1C)c1cc(OCC(F)F)nc(N2Cc3c(cccc3C(F)(F)F)C2=O)c1 [Compound 356, (R)-2-(6-(2,2-difluoroethoxy)-4-(1-(4-methyl-4H-1,2,4-triazol-3-yl)propan-2-yl)pyridin-2-yl)-4-(trifluoromethyl)isoindolin-1-one] | ≤ 100 nM | 2.51 to 5 | 2.51 to 5 | > 7.5 | 0.151 to 0.2 | > 0.201 | 1.01 to 1.3 | 1.01 to 1.3 | 1.31 to 1.5 | 0.801 to 1 | > 1 | < 100 nM | – | – | – | – | – | –
C[C@@H](Cc1nncn1C)c1cccc(NC(=O)c2cc(C(=O)N3CC[C@H](O)C3)cc(C3CC3)n2)c1 [Compound 221, 6-Cyclopropyl-4-[(3S)-3-hydroxypyrrolidine-1-carbonyl]-N-[3-[(1S)-1-methyl-2-(4-methyl-1,2,4-triazol-3-yl)ethyl]phenyl]pyridine-2-carboxamide] | ≤ 1000 nM | < 1 | < 1 | < 1 | 0.051 to 0.1 | 0.051 to 0.1 | 1.01 to 1.3 | 1.31 to 1.5 | 1.31 to 1.5 | < 0.6 | < 0.6 | 301 to 1000 nM | – | – | – | – | – | –
